Experimental findings from article PMC4703387, “Identification of the Calmodulin-Binding Domains of Fas Death Receptor” (PLoS ONE, 2016) are described below.

Where no end group is shown, it is not given here.

For the test, the target named is T1, Ca^2+/CaM (Homo sapiens, UniProt P0DP23).
T1 construct: made in house
Kind of test: 2D 1H-13C HMQC of 13C-labeled Ca^2+/CaM methionine methyl groups. The class given is binding. The source says: In the second approach, we assessed the role of hydrophobic surfaces located on the N- and C-terminal lobes of Ca^2+/CaM. These hydrophobic surfaces, which contribute to the flexibility and function of Ca^2+/CaM, are only formed when Ca^2+ is bound.[24] Ca^2+ binding induces a helical rearrangement, leading to exposure of eight methionine (Met) residues.[46, 47] Met residues are essential for the unique promiscuous binding behavior of Ca^2+/CaM to target proteins.[47] The methyl groups of Met residues are useful “NMR reporters” and widely used to probe for target binding.[34, 42, 47–49] Five Met residues (36, 51, 71, 72 and 76) are located in the N-terminal lobe and four (109, 124, 144, and 145) are located within the hydrophobic patch in the C-terminal lobe (Fig 8A). To assess whether the N- and C-terminal hydrophobic surfaces contribute to the binding of FasDD peptides, we collected 2D ^1H-^13C HMQC data on a uniformly ^13C-labeled Ca^2+/CaM sample as titrated with Fas-Pep1 or Fas-Pep2. Addition of a substoichiometric amount of Fas-Pep1 (0.5:1 peptide:Ca^2+/CaM) led to a decrease in the intensity of ^1H-^13C signals of M51, M71, M72, M109, M124 and M145 (Fig 8B, upper panel). Minimal or no chemical shift changes have been observed for signals corresponding to M76 and M144. Further addition of Fas-Pep1 led to appearance of new signals (Fig 8B). […]

On to “VQDTAEQKVQLLRNWHQLHGKKEAYDTLIKDLKKANLC [Fas-Pep2]”, for which the “CSPs of Met resonances on binding” value was “Notable CSPs are also observed in all of the ^1H-^13C resonances of Met residues”.
